The record followed here is ChEMBL document CHEMBL1124715 (J Med Chem, 1990).

Some results are limits rather than exact numbers.

The target of this test is Serotonin 2 (5-HT2) receptor (Rattus norvegicus, UniProt P30994+P08909+P14842). Briefly: Binding affinity against 5-hydroxytryptamine 2 receptor of rat frontal cortex using [3H]ketanserin radioligand. It is filed as tissue-based.
With `COc1cc(C(=O)O)c(OC)cc1CC(C)N.Cl` (centres undefined), the Ki is > 50000 nM. Regarding `CCCCCCCCc1cc(OC)c(CC(C)N)cc1OC.Cl` (centres undefined), the Ki was 3 nM. As for `COc1cc(CC(C)N)c(OC)cc1Cc1ccccc1.Cl` (centres undefined), the figure is 7 nM. For the compound `COc1cc(CC(C)N)c(OC)cc1C#N.Cl` (centres undefined), the Ki worked out at 2400 nM. `CCC(=O)c1cc(OC)c(CC(C)N)cc1OC.Cl` (centres undefined) had a Ki of 735 nM. `CCCCCCc1cc(OC)c(CC(C)N)cc1OC.Cl` (centres undefined) gave a Ki of 2.5 nM.

With `COc1cc(CC(C)N)c(OC)cc1CCCc1ccccc1.Cl` (centres undefined), the inhibitory constant (Ki) is 10 nM.

For the compound `CCCOC(=O)c1cc(OC)c(CC(C)N)cc1OC` (centres undefined), the inhibition constant Ki stood at 2460 nM. As for `COc1cc(C(=N)N)c(OC)cc1CC(C)N` (centres undefined), the figure is 7 nM; as for `CCCNC(=O)c1cc(OC)c(CC(C)N)cc1OC` (centres undefined), 7550 nM; as for `COc1cc(CC(C)N)c(OC)cc1I` (centres undefined), 19 nM. `COc1cc(CC(C)N)c(OC)cc1N` (centres undefined) gave a Ki of 26000 nM. The same measure for `COc1cc(CC(C)N)c(OC)cc1Cl` (centres undefined): 218 nM; for `CCCCOC(=O)c1cc(OC)c(CC(C)N)cc1OC` (centres undefined): 1530 nM; for `CCCCc1cc(OC)c(CC(C)N)cc1OC` (centres undefined): 58 nM. As for `CCOc1cc(OC)c(CC(C)N)cc1OC` (centres undefined), the figure is 2200 nM; as for `COc1cc(C(C)C)c(OC)cc1CC(C)N` (centres undefined), 76 nM. As for `COc1cc(C(C)(C)C)c(OC)cc1CC(C)N` (centres undefined), the figure is 19 nM; as for `COc1cc(CC(C)N)c(OC)cc1O` (centres undefined), > 50000 nM.

Broadly, the Ki is a measure of affinity in units of concentration, obtained from inhibition or displacement. A high value points to weaker binding.
